Source: ChEMBL document CHEMBL3881530, “Compounds and methods for inhibiting NHE-mediated antiport in the treatment of disorders associated with fluid retention or salt overload and gastrointestinal tract disorders” (2013)

Key:
[1] = biological target: T1, Sodium/hydrogen exchanger 2 (Homo sapiens, UniProt Q9UBY0); assay: Inhibition of NHE-2 (unknown origin)
T1 sequence (Q9UBY0 whole entry): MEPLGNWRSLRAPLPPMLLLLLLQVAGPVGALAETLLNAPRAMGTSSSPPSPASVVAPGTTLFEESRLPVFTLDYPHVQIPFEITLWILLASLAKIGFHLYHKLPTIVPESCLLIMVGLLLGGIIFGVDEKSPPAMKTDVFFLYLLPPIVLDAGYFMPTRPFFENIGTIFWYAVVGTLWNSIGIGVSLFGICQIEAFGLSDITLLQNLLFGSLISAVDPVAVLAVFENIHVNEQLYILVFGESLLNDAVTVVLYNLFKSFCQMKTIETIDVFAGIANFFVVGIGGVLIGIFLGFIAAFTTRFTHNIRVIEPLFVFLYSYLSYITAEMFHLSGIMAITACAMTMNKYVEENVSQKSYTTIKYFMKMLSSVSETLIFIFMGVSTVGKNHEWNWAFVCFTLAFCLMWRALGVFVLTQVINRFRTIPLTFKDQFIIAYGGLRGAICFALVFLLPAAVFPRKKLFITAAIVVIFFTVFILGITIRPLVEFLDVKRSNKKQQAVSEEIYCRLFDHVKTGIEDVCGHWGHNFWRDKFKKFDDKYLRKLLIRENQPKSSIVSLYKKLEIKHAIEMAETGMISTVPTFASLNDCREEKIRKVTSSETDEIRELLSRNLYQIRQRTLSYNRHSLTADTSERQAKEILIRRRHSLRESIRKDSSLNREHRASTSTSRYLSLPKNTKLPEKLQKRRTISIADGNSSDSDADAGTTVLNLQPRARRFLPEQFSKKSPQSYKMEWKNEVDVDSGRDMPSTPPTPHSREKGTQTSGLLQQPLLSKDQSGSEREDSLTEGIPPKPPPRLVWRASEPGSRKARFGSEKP

[2] = biological target: Sodium/hydrogen exchanger 1 (Homo sapiens, UniProt P19634); assay: Inhibition of NHE-1 (unknown origin)
Chain of Sodium/hydrogen exchanger 1 (P19634 whole entry): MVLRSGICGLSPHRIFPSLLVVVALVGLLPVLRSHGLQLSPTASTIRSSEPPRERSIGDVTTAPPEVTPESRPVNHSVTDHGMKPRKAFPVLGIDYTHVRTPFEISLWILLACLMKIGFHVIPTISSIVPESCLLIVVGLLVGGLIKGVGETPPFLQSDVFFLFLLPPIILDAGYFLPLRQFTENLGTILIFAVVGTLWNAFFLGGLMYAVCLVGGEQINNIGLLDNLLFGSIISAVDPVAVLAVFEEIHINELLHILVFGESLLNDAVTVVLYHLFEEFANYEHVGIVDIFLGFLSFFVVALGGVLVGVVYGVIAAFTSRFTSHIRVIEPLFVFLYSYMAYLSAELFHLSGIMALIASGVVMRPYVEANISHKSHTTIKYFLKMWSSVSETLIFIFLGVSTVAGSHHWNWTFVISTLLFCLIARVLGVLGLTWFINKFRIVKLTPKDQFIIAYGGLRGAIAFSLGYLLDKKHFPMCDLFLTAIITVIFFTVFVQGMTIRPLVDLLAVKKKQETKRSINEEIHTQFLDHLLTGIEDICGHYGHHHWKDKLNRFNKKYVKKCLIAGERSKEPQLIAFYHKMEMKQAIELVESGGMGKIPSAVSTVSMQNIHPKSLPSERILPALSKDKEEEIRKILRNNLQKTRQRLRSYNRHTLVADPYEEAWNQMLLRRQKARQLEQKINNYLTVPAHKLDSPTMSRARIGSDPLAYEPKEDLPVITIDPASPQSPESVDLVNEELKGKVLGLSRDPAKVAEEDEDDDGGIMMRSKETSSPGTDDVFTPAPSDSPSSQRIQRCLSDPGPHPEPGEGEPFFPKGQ

[3] = biological target: T2, Sodium/hydrogen exchanger 3 (Homo sapiens, UniProt P48764); assay: Inhibition of NHE-3 (unknown origin)
T2 sequence (P48764 whole entry): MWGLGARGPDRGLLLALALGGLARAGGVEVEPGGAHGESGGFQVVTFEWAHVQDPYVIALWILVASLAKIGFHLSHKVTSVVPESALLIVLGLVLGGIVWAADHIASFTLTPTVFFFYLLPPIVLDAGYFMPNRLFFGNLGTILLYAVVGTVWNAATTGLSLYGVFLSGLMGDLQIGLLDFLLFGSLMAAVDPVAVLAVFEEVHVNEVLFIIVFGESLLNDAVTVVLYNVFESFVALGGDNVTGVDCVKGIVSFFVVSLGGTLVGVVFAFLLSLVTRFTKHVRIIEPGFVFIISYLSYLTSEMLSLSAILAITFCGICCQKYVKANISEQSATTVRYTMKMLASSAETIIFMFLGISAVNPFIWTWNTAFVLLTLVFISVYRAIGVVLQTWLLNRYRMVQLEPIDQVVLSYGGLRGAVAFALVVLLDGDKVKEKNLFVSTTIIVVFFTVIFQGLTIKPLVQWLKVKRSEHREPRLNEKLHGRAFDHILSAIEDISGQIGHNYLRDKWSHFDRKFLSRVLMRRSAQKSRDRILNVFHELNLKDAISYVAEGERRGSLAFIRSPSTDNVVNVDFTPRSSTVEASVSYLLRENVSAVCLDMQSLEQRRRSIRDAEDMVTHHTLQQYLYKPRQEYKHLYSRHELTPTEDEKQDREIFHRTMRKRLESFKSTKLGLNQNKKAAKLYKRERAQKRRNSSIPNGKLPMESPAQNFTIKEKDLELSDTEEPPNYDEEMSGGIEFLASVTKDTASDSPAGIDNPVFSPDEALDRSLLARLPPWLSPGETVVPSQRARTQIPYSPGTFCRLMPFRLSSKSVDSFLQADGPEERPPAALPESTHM

Rattus norvegicus [4] = assay: Effect on fecal water content in Sprague-Dawley rat at 3 mg/kg administered via oral gavage measured after 16 hrs relative to control; type: functional
[5] = Cmax in Sprague-Dawley rat at 2.2 mg/kg administered via oral gavage measured up to 4 hrs by LC/MS/MS analysis; type: ADME, organism-based; parameters: dose 2.2 mg/kg, route oral; details: in vivo
[6] = AUC in Sprague-Dawley rat at 2.2 mg/kg administered via oral gavage measured up to 4 hrs by LC/MS/MS analysis; type: ADME, organism-based; parameters: time < 4 hr, dose 2.2 mg/kg, route oral; details: in vivo
Rattus norvegicus [7] = assay: Decrease in urinary sodium level in Sprague-Dawley rat administered via oral gavage measured after 16 hrs by ion chromatographic analysis; type: functional
[8] = Cmax in Sprague-Dawley rat at 28 mg/kg administered via oral gavage measured up to 4 hrs by LC/MS/MS analysis; type: ADME, organism-based; parameters: dose 28 mg/kg, route oral; details: in vivo
[9] = AUC in Sprague-Dawley rat at 28 mg/kg administered via oral gavage measured up to 4 hrs by LC/MS/MS analysis; type: ADME, organism-based; parameters: time < 4 hr, dose 28 mg/kg, route oral; details: in vivo
[10] = biological target: T3, Sodium/hydrogen exchanger 5 (Homo sapiens, UniProt Q14940); assay: Inhibition of NHE-5 (unknown origin)
T3 sequence (Q14940 whole entry): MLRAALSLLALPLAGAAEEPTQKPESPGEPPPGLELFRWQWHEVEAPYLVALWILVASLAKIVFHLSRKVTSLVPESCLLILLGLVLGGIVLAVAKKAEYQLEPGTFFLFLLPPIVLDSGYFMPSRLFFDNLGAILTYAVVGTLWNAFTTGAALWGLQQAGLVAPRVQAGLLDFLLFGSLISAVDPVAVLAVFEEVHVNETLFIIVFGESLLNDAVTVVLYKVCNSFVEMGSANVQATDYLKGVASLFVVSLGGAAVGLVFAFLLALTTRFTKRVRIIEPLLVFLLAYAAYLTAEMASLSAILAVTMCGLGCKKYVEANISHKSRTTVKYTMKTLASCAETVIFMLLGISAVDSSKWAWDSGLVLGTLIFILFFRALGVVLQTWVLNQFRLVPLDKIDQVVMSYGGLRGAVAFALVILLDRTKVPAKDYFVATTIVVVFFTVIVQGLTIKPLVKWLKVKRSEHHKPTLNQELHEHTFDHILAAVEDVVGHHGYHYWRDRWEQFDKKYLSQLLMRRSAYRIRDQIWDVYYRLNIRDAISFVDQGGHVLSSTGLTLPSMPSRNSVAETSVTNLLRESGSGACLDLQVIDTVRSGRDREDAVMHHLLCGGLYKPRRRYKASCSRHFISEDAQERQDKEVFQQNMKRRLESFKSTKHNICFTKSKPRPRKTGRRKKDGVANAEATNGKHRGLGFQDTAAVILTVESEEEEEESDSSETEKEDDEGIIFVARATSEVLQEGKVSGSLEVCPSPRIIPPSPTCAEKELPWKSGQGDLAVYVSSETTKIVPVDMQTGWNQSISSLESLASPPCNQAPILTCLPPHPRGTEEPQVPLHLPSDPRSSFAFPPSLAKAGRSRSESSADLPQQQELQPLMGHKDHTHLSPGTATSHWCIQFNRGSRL

[11] = Drug recovery in Sprague-Dawley rat feces at 0.1 mg/kg administered via oral gavage measured after 72 hrs by LC/MS/MS analysis; type: ADME, organism-based; details: faeces, read-out: Drug recovery
Rattus norvegicus [12] = assay: Increase in fecal water content in Sprague-Dawley rat administered via oral gavage measured after 16 hrs; type: functional

Compound: Cc1ccc(F)cc1[C@H]1C/C(=N\N=C(N)N)c2c(C)cccc2C1
- IC50 [1]: 310 nM
- IC50 [2]: 35000 nM
- IC50 [3]: > 30000 nM

Compound: C/C(=C\c1cccc(/C=C(\C)C(=O)NC(=N)N)c1)C(=O)N=C(N)N
- IC50 [1]: 70 nM
- IC50 [2]: 2 nM
- IC50 [3]: 1320 nM

Compound: CN1Cc2c(Cl)cc(Cl)cc2C(c2ccc(S(=O)(=O)NCCOCCOCCNC(=O)CCC(=O)NCCOCCOCCNS(=O)(=O)c3ccc(C4CN(C)Cc5c(Cl)cc(Cl)cc54)cc3)cc2)C1 (stereo not given)
- Activity (Rattus norvegicus [4]): 121%

Compound: CN1Cc2c(Cl)cc(Cl)cc2C(c2cccc(S(=O)(=O)NCCOCCOCCNC(=O)Nc3ccc(NC(=O)NCCOCCOCCNS(=O)(=O)c4cccc(C5CN(C)Cc6c(Cl)cc(Cl)cc65)c4)cc3)c2)C1 (stereo not given)
- Activity (Rattus norvegicus [4]): 120%

Compound: CN1Cc2c(Cl)cc(Cl)cc2C(c2cccc(NC(=O)N[C@@H](CC(=O)O)C(=O)O)c2)C1 (stereo not given in full)
- Cmax [5]: 2.4 ng/mL
- AUC at 4 h [6]: 5 ng·h/mL

Compound: CN1Cc2c(Cl)cc(Cl)cc2C(c2cccc(S(=O)(=O)NCCOCCOCCNC(=O)c3ccc(C(=O)NCCOCCOCCNS(=O)(=O)c4cccc(C5CN(C)Cc6c(Cl)cc(Cl)cc65)c4)cc3)c2)C1 (stereo not given)
- Activity (Rattus norvegicus [4]): 117%

Compound: CN1Cc2c(Cl)cc(Cl)cc2[C@H](c2ccc(S(=O)(=O)NCCOCCOCCNC(=O)COCC(=O)NCCOCCOCCNS(=O)(=O)c3ccc([C@@H]4CN(C)Cc5c(Cl)cc(Cl)cc54)cc3)cc2)C1.Cl.Cl (single isomer, unassigned)
- Activity (Rattus norvegicus [7]): Dose-dependent effect
- Activity (Rattus norvegicus [4]): 127%

Compound: C/C(=C\c1cc(F)c(Oc2ccc(S(=O)(=O)NCCP(=O)(O)O)cc2)c(F)c1)C(=O)N=C(N)N
- Cmax [5]: 9 ng/mL
- AUC at 4 h [6]: 23 ng·h/mL

Compound: CN1Cc2c(Cl)cc(Cl)cc2C(c2ccc(S(=O)(=O)NCCOCCOCCNC(=O)Nc3ccc(NC(=O)NCCOCCOCCNS(=O)(=O)c4ccc(C5CN(C)Cc6c(Cl)cc(Cl)cc65)cc4)cc3)cc2)C1 (stereo not given)
- Activity (Rattus norvegicus [4]): 114%

Compound: CN1Cc2c(Cl)cc(Cl)cc2C(c2cccc(S(=O)(=O)NCCOCCOCCOCCNC(=O)C(O)C(O)C(=O)NCCOCCOCCOCCNS(=O)(=O)c3cccc(C4CN(C)Cc5c(Cl)cc(Cl)cc54)c3)c2)C1 (single isomer, unassigned)
- Activity (Rattus norvegicus [4]): 125%

Compound: CN1Cc2c(Cl)cc(Cl)cc2C(c2ccc(S(=O)(=O)NCCOCCOCCNC(=O)C(=O)NCCOCCOCCNS(=O)(=O)c3ccc(C4CN(C)Cc5c(Cl)cc(Cl)cc54)cc3)cc2)C1 (stereo not given)
- Cmax [8]: 8 ng/mL
- AUC at 4 h [9]: 6 ng·h/mL

Compound: CC(C)c1ccc(C(=O)NC(=N)N)cc1S(C)(=O)=O [CARIPORIDE]
- IC50 [1]: 4300 to 62000 nM
- IC50 [2]: 30 to 3400 nM
- IC50 [10]: > 30000 nM
- IC50 [3]: 1000 to 100000 nM

Compound: CN1Cc2c(Cl)cc(Cl)cc2C(c2cccc(NCCOCCOCCOCCNC(=O)C(O)C(O)C(=O)NCCOCCOCCOCCNc3cccc(C4CN(C)Cc5c(Cl)cc(Cl)cc54)c3)c2)C1 (stereo not given)
- Cmax [8]: 23 ng/mL
- AUC at 4 h [9]: 19 ng·h/mL

Compound: CC1(C)[C@H](C(=O)N=C(N)N)[C@H]1c1cccc2c1CCO2
- IC50 [1]: 1800 nM
- IC50 [3]: > 30000 nM

Compound: CN1Cc2c(Cl)cc(Cl)cc2[C@H](c2ccc(S(=O)(=O)NCCOCCOCCNC(=O)CCC(=O)NCCOCCOCCNS(=O)(=O)c3ccc([C@@H]4CN(C)Cc5c(Cl)cc(Cl)cc54)cc3)cc2)C1.Cl.Cl (single isomer, unassigned)
- Activity (Rattus norvegicus [4]): 124%

Compound: CN1Cc2c(Cl)cc(Cl)cc2[C@H](c2cccc(S(=O)(=O)NCCOCCOCCOCCNC(=O)NCCCCNC(=O)NCCOCCOCCOCCNS(=O)(=O)c3cccc([C@@H]4CN(C)Cc5c(Cl)cc(Cl)cc54)c3)c2)C1 (single isomer, unassigned)
- Activity (Rattus norvegicus [7]): Dose-dependent effect
- Activity (Rattus norvegicus [4]): 118%

Compound: CN1Cc2c(Cl)cc(Cl)cc2C(c2ccc(S(=O)(=O)NCCOCCOCCNC(=O)COCC(=O)NCCOCCOCCNS(=O)(=O)c3ccc(C4CN(C)Cc5c(Cl)cc(Cl)cc54)cc3)cc2)C1 (stereo not given)
- Activity (Rattus norvegicus [4]): 118%

Compound: CN1Cc2c(Cl)cc(Cl)cc2C(c2cccc(S(=O)(=O)NCCOCCOCCNC(=O)NCCCCNC(=O)NCCOCCOCCNS(=O)(=O)c3cccc(C4CN(C)Cc5c(Cl)cc(Cl)cc54)c3)c2)C1 (stereo not given)
- Activity (Rattus norvegicus [4]): 128%

Compound: CN1Cc2c(Cl)cc(Cl)cc2[C@H](c2cccc(S(=O)(=O)NCCOCCOCCNC(=O)NCCCCNC(=O)NCCOCCOCCNS(=O)(=O)c3cccc([C@@H]4CN(C)Cc5c(Cl)cc(Cl)cc54)c3)c2)C1.Cl.Cl (single isomer, unassigned) [TENAPANOR HYDROCHLORIDE]
- dose excreted at 72 h [11]: 90.5 to 93.8%
- Activity (Rattus norvegicus [4]): 134%

Compound: Cc1cc(-n2cccc2)c(S(C)(=O)=O)cc1C(=O)NC(=N)N [ENIPORIDE]
- IC50 [1]: 2000 to 17000 nM
- IC50 [2]: 5 to 380 nM
- IC50 [10]: > 30000 nM
- IC50 [3]: 100000 to 460000 nM

Compound: CN1Cc2c(Cl)cc(Cl)cc2C(c2cccc(S(=O)(=O)NCCOCCOCCOCCNC(=O)C(O)C(O)C(=O)NCCOCCOCCOCCNS(=O)(=O)c3cccc(C4CN(C)Cc5c(Cl)cc(Cl)cc54)c3)c2)C1 (stereo not given)
- Activity (Rattus norvegicus [12]): Dose-dependent effect

Compound: Cc1ccc(F)cc1[C@@H]1C/C(=N\N=C(N)N)c2c(C)cccc2C1
- IC50 [1]: 430 nM
- IC50 [2]: 1 nM
- IC50 [3]: 11000 nM

Compound: CN1Cc2c(Cl)cc(Cl)cc2[C@H](c2ccc(S(=O)(=O)NCCOCCOCCOCCNC(=O)NCCOCCOCCOCCNS(=O)(=O)c3ccc([C@@H]4CN(C)Cc5c(Cl)cc(Cl)cc54)cc3)cc2)C1 (mixture of isomers)
- Activity (Rattus norvegicus [4]): 120%

Compound: CN1Cc2c(Cl)cc(Cl)cc2[C@H](c2cccc(S(=O)(=O)NCCOCCOCCNC(=O)Nc3ccc(NC(=O)NCCOCCOCCNS(=O)(=O)c4cccc([C@@H]5CN(C)Cc6c(Cl)cc(Cl)cc65)c4)cc3)c2)C1.Cl.Cl (single isomer, unassigned)
- dose excreted at 72 h [11]: 75.8 to 104%
- Activity (Rattus norvegicus [4]): 130%
